Data: PMC6326797 (Nucleic Acids Research, 2018)

Target: T1, RNase L (Homo sapiens, UniProt Q05823)
T1 sequence (Q05823 1-741): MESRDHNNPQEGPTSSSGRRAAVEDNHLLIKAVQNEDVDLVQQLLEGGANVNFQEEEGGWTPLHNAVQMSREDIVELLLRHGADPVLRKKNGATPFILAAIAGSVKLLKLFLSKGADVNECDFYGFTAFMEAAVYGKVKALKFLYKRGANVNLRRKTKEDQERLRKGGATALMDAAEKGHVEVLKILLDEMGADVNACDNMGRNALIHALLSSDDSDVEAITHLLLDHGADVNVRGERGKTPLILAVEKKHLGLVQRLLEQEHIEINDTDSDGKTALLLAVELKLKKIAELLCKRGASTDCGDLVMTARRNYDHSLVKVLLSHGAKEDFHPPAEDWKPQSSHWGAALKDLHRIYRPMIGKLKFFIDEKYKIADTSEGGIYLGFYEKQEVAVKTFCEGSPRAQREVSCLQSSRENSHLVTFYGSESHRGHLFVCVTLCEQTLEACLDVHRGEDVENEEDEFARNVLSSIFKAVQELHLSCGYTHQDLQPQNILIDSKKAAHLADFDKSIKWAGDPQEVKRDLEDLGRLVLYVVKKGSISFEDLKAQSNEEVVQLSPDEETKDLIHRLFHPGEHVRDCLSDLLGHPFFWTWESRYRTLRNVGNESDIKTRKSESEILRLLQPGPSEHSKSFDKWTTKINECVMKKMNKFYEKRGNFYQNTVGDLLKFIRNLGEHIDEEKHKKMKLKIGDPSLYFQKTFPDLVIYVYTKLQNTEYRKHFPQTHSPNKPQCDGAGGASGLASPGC
Assay: FRET RNA cleavage assay
Type: biochemical

IC50: ~30 µM
Compound: COc1cc(/C=C/C(=O)CC(=O)/C=C/c2ccc(O)c(OC)c2)ccc1O [curcumin]
